US20230348495A1, “A COMPOUND HAVING INHIBITORY ACTIVITY AGAINST KRAS G12D MUTATION” (TAIHO PHARMACEUTICAL CO., LTD., priority 2019, published 2023)

Columns and labels:
KRAS G12D = KRAS G12D (Homo sapiens (Human), UniProt P01116, G12D); test: Inhibitory activity on KRAS G12D nucleotide (GDP-GTP) exchange reaction in vitro (SOS1-dependent, BODIPY FL GDP); assay type: biochemical; settings: BODIPY FL GDP-bound KRAS G12D, compound 25° C. 1 hour, then SOS1 and GMPPNP 30 minutes
Description: Test Example 1: Evaluation of inhibitory activity of compounds on KRAS G12D nucleotide (GDP-GTP) exchange reaction in vitro
Recombinant KRAS G12D (conjugated N-terminus His6-tag, TEV protease cleavage site and KRAS G12D residues 1-169 (SEQ ID NO: 1), prepared by the method described as below) and cleaved recombinant SOS1 (residues 564-1049(SEQ ID NO: 2), prepared by the method as below) proteins were expressed in E. coli and purified by affinity chromatography.
To prepare the recombinant KRAS G12D, the codon-optimized DNA sequence for the recombinant KRAS G12D (conjugated N-terminus His6-tag, TEV protease cleavage site and KRAS G12D residues 1-169 (SEQ ID NO: 3))was synthesized by GeneArt Technology (Life Technologies, Carlsbad, CA, US). The construct was subcloned into the expression vector pET28a and transformed into Escherichia coli BL21 (DE3) strains (Novagen, Madison, WI, US).
The transformed strain was cultivated in 2 L Luria Broth medium with 25 μg/mL kanamycin at a temperature of 37° C. to a density of 0.6 (OD600), then induced for expression with […] IPTG and further cultivated for 4 h. The cell pellet was resuspended in ice-cold lysis buffer containing 50 mM Tris-HCl (pH 7.5), 200 mM NaCl, and 100 μM TCEP (tris(2-carboxyethyl)phosphine).
After sonication, the disrupted debris was removed by centrifugation. The supernatant was applied on to Ni-NTA affinity gels, and the recombinant human KRAS (G12D) eluted fraction was collected. The buffer of the collected fraction was exchanged to the buffer containing 50 mM Tris-HCl (pH 7.5), 200 mM NaCl, 10% Glycerol, and 5 mM DTT by PD-10 column (GE-Healthcare, Chicago, IL, US).
To prepare the cleaved recombinant SOS1, the codon optimized DNA sequences for the recombinant SOS1 (residues 564-1049 with a conjugated N-terminus His6-tag and TEV protease cleavage site (SEQ ID NO: 4)) was synthesized by GeneArt Technology (Life Technologies). The construct was subcloned into the expression vector pET28a and transformed into Escherichia coli BL21 (DE3) strains (Novagen, Madison, WI, USA).
The transformed strain was cultivated in 2 L Terrific Broth medium with 25 μg/mL kanamycin at a temperature of 37° C. to a density of 0.8 (OD600), then shifted to a temperature of 16° C., induced for expression with […] IPTG, and further cultivated for 16 h. The cell pellet was resuspended in ice-cold lysis buffer containing 50 mM Tris-HCl (pH 7.5), 200 mM NaCl, and 100 μM TCEP.
After sonication, the disrupted debris was removed by centrifugation. The supernatant was applied on to Ni-NTA affinity gels, and the recombinant human SOS1 eluted fraction was collected. Then, His6-tagged TEV protease was added to the collected fraction, dialyzed with the ice-cold lysis buffer for 16 h at a temperature of 4° C., and applied on to Ni-NTA affinity gels. The flow-through fraction containing the tag-cleavaged recombinant human SOS1 was collected. The buffer of the collected fraction was exchanged to the buffer containing 50 mM Tris-HCl (pH 7.5), 200 mM NaCl, 10% Glycerol, and 5 mM DTT by PD-10 column (GE-Healthcare).
To prepare BODIPY FL (fluorescent dye) GDP-bound KRAS G12D protein, 50 μM KRAS G12D protein was incubated with 0.5 mM BODIPY FL GDP in a loading buffer (20 mM Tris-HCl (pH 7.5), 50 mM NaCl, 1 mM DTT and 2.5 mM EDTA) for 1 hour on ice. After the incubation, MgCl2 was added to a final concentration of 10 mM, followed by incubation at room temperature for 30 minutes.
The mixture was allowed to pass through a NAP-5 column to remove free nucleotides and purified BODIPY FL GDP-bound KRAS G12D protein was used for compound evaluation.
For the measurement of the inhibitory activity of compounds on GDP-GTP exchange rate of recombinant KRAS G12D, BODIPY FL GDP-bound KRAS G12D protein was incubated with various concentrations of compound in a reaction buffer (20 mM Tris-HCl (pH 7.5), 100 mM NaCl, 1 mM MgCl2, 2 mM DTT, 0.1% Tween 20) at 25° C. for 1 hour. […]

[1] = system: KRAS-G12D mutant cell line (A-427); test: Growth inhibition activity on KRAS-G12D mutant cell line (A-427), CellTiter-Glo 3D; assay type: cell-based; settings: Homo sapiens, 72 h, A-427 cells, 3-day culture with compound, read-out: A427 CTX IC50
Description: Test Example 2: A measurement test of growth inhibition activity on KRAS-G12D mutant cell line (A-427) (in vitro) A-427 cells (ATCC, Cat #: HTB-53), which are a KRAS-G12D mutant human lung cancer cell line, were suspended in a 10% fetal bovine serum-containing E-MEM medium (manufactured by Fujifilm Wako Pure Chemical Corporation). The cell suspension was seeded into each well of a 384-well U bottom microplate and cultured in an incubator containing 5% CO2 gas at 37° C. for 1 day.
The compound of the present invention was dissolved in DMSO, and the test compound was diluted with DMSO to give a concentration 500 times the final concentration. The solution of the test compound in DMSO was diluted with the medium used for suspending cells and added to each well of the cell-culture plate to give a DMSO final concentration of 0.2%, followed by culture in an incubator containing 5% CO2 gas at 37° C. for another 3 days. The cell count after a 3-day culture in the presence of the compound was measured using CellTiter-Glo 3D Reagent (manufactured by Promega Corporation).
All wells were added with CellTiter-Glo 3D Reagent and mixed for 10 minutes. 30 minutes after mixing, luminescence was measured by a plate reader. The growth inhibition rate was calculated from the following equation, and the concentration of the test compound at which 50% inhibition was achieved (IC50 (μM)) was determined.
Growth Inhibition Rate(%)=(C−T)/(C)×100
T: the emission intensity in a well into which a test compound was added.
C: the emission intensity in a well into which a test compound was not added.

Sequence of KRAS G12D (P01116 other isoform, or with tags, fused parts or gaps G12D (already in the parent)): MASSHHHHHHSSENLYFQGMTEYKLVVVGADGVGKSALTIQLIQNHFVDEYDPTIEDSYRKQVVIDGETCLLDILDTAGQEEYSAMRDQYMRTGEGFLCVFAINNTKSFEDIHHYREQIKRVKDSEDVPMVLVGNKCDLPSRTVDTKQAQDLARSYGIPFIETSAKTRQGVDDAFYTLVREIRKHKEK

Row | SMILES | IC50 (KRAS G12D) | IC50 [1]
1 | CN(C)[C@@H]1CC[C@@H]1COc1nc(N2CC3CCC(C2)N3)c2ccc(-c3cc(O)cc4ccccc34)c(F)c2n1 (relative stereo) [Example 17, 4-(4-(3,8-diazabicyclo[3.2.1]octan-3-yl)-2-((cis-2-(dimethylamino)cyclobutyl)methoxy)-8-fluoroquinazolin-7-yl)naphthalen-2-ol] | 14.6 nM | 1290 nM
2 | CN(C)CC1(COc2nc3c(c(N4CC5CCC(C4)N5)n2)CCN(c2cc(O)cc4cccc(Br)c24)C3)CC1 [Example 1, 4-(4-(3,8-diazabicyclo[3.2.1]octan-3-yl)-2-((1-((dimethylamino)methyl)cyclopropyl)methoxy)-5,8-dihydropyrido[3,4-d]pyrimidin-7(6H)-yl)-5-bromonaphthalen-2-ol] | 0.8 nM | 1170 nM
3 | Oc1cc(N2CCc3c(nc(OCC4(CN5CC[C@@H](F)C5)CC4)nc3N3CC4CCC(C3)N4)C2)c2c(Br)cccc2c1 [Example 2, 4-(4-(3,8-diazabicyclo[3.2.1]octan-3-yl)-2-((1-(((R)-3-fluoropyrrolidin-1-yl)methyl)cyclopropyl)methoxy)-5,8-dihydropyrido[3,4-d]pyrimidin-7(6H)-yl)-5-bromonaphthalen-2-ol] | 1.5 nM | 540 nM
4 | Oc1cc(N2CCc3c(nc(OCC4(CN5CCOCC5)CC4)nc3N3CC4CCC(C3)N4)C2)c2c(Br)cccc2c1 [Example 3, 4-(4-(3,8-diazabicyclo[3.2.1]octan-3-yl)-2-((1-(morpholinomethyl)cyclopropyl)methoxy)-5,8-dihydropyrido[3,4-d]pyrimidin-7 (6H)-yl) -5-bromonaphthalen-2-ol] |  | 590 nM
5 | Cc1cccc2cc(O)cc(N3CCc4c(nc(OCC5(CN(C)C)CC5)nc4N4CC5CCC(C4)N5)C3)c12 [Example 4, 4-(4-(3,8-diazabicyclo[3.2.1]octan-3-yl)-2-((1-((dimethylamino)methyl)cyclopropyl)methoxy)-5,8-dihydropyrido[3,4-d]pyrimidin-7(6H)-yl)-5-methylnaphthalen-2-ol] | 1.5 nM | 1170 nM
6 | Cc1cccc2cc(O)cc(N3CCc4c(nc(OCC5(CN6CC[C@@H](F)C6)CC5)nc4N4CC5CCC(C4)N5)C3)c12 [Example 5, 4-(4-(3,8-diazabicyclo[3.2.1]octan-3-yl)-2-((1-(((R)-3-fluoropyrrolidin-1-yl)methyl)cyclopropyl)methoxy)-5,8-dihydropyrido[3,4-d]pyrimidin-7(6H)-yl)-5-methylnaphthalen-2-ol] | 6.2 nM | 1170 nM
7 | Cc1cccc2cc(O)cc(N3CCc4c(nc(OCC5(CN6CCOCC6)CC5)nc4N4CC5CCC(C4)N5)C3)c12 [Example 6, 4-(4-(3,8-diazabicyclo[3.2.1]octan-3-yl)-2-((1-(morpholinomethyl)cyclopropyl)methoxy)-5,8-dihydropyrido[3,4-d]pyrimidin-7(6H)-yl)-5-methylnaphthalen-2-ol] | 3.2 nM | 550 nM
8 | CN(C)CC1(COc2nc3c(c(N4CC5CCC(C4)N5)n2)CCN(c2cc(O)cc4cccc(I)c24)C3)CC1 [Example 7, 4-(4-(3,8-diazabicyclo[3.2.1]octan-3-yl)-2-((1-((dimethylamino)methyl)cyclopropyl)methoxy)-5,8-dihydropyrido[3,4-d]pyrimidin-7(6H)-yl)-5-iodonaphthalen-2-ol] | 0.7 nM | 580 nM
9 | Oc1cc(N2CCc3c(nc(OCC4(CN5CC[C@@H](F)C5)CC4)nc3N3CC4CCC(C3)N4)C2)c2c(I)cccc2c1 [Example 8, 4-(4-(3,8-diazabicyclo[3.2.1]octan-3-yl)-2-((1-(((R)-3-fluoropyrrolidin-1-yl)methyl)cyclopropyl)methoxy)-5,8-dihydropyrido[3,4-d]pyrimidin-7(6H)-yl)-5-iodonaphthalen-2-ol] | 0.9 nM | 470 nM
10 | Oc1cc(N2CCc3c(nc(OCC4(CN5CCOCC5)CC4)nc3N3CC4CCC(C3)N4)C2)c2c(I)cccc2c1 [Example 9, 4-(4-(3,8-diazabicyclo[3.2.1]octan-3-yl)-2-((1-(morpholinomethyl)cyclopropyl)methoxy)-5,8-dihydropyrido[3,4-d]pyrimidin-7(6H)-yl)-5-iodonaphthalen-2-ol] | 0.7 nM | 350 nM
11 | C#Cc1cccc2cc(O)cc(C(=O)N3Cc4nc(OCC5(CN6CCOCC6)CC5)nc(N5CC6CCC(C5)N6)c4C3)c12 [Example 10, (4-(3,8-diazabicyclo[3.2.1]octan-3-yl)-2-((1-(morpholinomethyl)cyclopropyl)methoxy)-5,7-dihydro-6H-pyrrolo[3,4-d]pyrimidin-6-yl) (8-ethynyl-3-hydroxynaphthalen-1-yl)methanone] | 1.5 nM | 6620 nM
12 | C#Cc1cccc2cc(O)cc(C(=O)N3Cc4nc(OCC5(CN6CC[C@@H](F)C6)CC5)nc(N5CC6CCC(C5)N6)c4C3)c12 [Example 11, (4-(3,8-diazabicyclo[3.2.1]octan-3-yl)-2-((1-(((R)-3-fluoropyrrolidin-1-yl)methyl)cyclopropyl)methoxy)-5,7-dihydro-6H-pyrrolo[3,4-d]pyrimidin-6-yl) (8-ethynyl-3-hydroxynaphthalen-1-yl)methanone] | 1.4 nM | 7850 nM
13 | Ic1cccc2cccc(N3CCc4c(nc(OCC5(CN6CCOCC6)CC5)nc4N4CC5CCC(C4)N5)C3)c12 [Example 25, 4-((1-(((4-(3,8-diazabicyclo[3.2.1]octan-3-yl)-7-(8-iodonaphthalen-1-yl)-5,6,7,8-tetrahydropyrido[3,4-d]pyrimidin-2-yl)oxy)methyl)cyclopropyl)methyl)morpholine] | 39.8 nM | 
14 | CN1CCC[C@@H]1COc1nc2c(c(N3CC4CCC(C3)N4)n1)CCN(c1cc(O)cc3cccc(Br)c13)C2 [Example 26, 4-(4-(3,8-diazabicyclo[3.2.1]octan-3-yl)-2-(((R)-1-methylpyrrolidin-2-yl)methoxy)-5,8-dihydropyrido[3,4-d]pyrimidin-7(6H)-yl)-5-bromonaphthalen-2-ol] | 19.9 nM | 
